Reference: patent US20100087649A1, “QUINOLINONE DERIVATIVES” (priority 2006, published 2010)

Legend:
[1] = system: wild-type HIV-IIIB strain; experiment: Antiviral analysis EGFP: anti-HIV activity in MT4 LTR-EGFP cells; assay type: cell-based, HIV-1; conditions: fluorescence of HIV-infected cells reduced by 50%, three days after infection
Description: The compounds of the present invention were tested for anti-viral activity in a cellular assay, which was performed according to the following procedure.
The human T-cell line MT4 is engineered with Green Fluorescent Protein (GFP) and an HIV-specific promoter, HIV-1 long terminal repeat (LTR). This cell line is designated MT4 LTR-EGFP, and can be used for the in vitro evaluation of anti-HIV activity of investigational compounds. In HIV-1 infected cells, the Tat protein is produced which upregulates the LTR promotor and finally leads to stimulation of the GFP reporter production, allowing measuring ongoing HIV-infection fluorometrically.
(§1) Effective concentration values such as 50% effective concentration (EC50) can be determined and are usually expressed in μM. An EC50 value is defined as the concentration of test compound that reduces the fluorescence of HIV-infected cells by 50%. The 50% cytotoxic concentration (CC50 in μM) is defined as the concentration of test compound that reduces fluorescence of the mock-infected cells by 50%. The ratio of CC50 to EC50 is defined as the selectivity index (SI) and is an indication of the selectivity of the anti-HIV activity of the inhibitor. The ultimate monitoring of HIV-1 infection and cytotoxicity is done using a scanning microscope. Image analysis allows very sensitive detection of viral infection. Measurements are done before cell necrosis, which usually takes place about five days after infection, in particular measurements are performed three days after infection.
The following Table 5 lists EC50 values, expressed in micromole/liter, against wild-type HIV-IIIB strain, for a selected number of compounds of the invention.

[2] = Cytotoxicity in mock-infected MT4 CMV-EGFP cells; assay type: cell-based, human; conditions: human, fluorescence reduced by 50%
Excerpt: (§2) Analogously, MT4 cells are engineered with GFP and the constitutional cytomegalovirus (CMV) promotor. This cell line is designated MT4 CMV-EGFP, and can be used for the in vitro evaluation of cytotoxicity of investigational compounds. In this cell line, GFP levels are comparably to those of infected MT4 LTR-EGFP cells. Cytotoxic investigational compounds reduce GFP levels of mock-infected MT4 CMV-EGFP cells.
as §1

MT4 CMV-EGFP cells = experiment: Cytotoxicity in mock-infected MT4 CMV-EGFP cells; assay type: cell-based, human; conditions: fluorescence reduced by 50%
Excerpt: as §2, §1

[3] = Human immunodeficiency virus 1, 72 h

COc1ccc2c(c1)cc(C#N)c(=O)n2-c1ccc([N+](=O)[O-])cc1 [compound 83]
EC50 [1, 3]: > 32 µM | CC50 at 3 days [2]: > 32 µM

N#Cc1cc2ccc(-n3ccnc3)cc2n(-c2ccc([N+](=O)[O-])cc2)c1=O [compound 27]
EC50 [1, 3]: 1.13 µM | CC50 at 3 days [2]: > 100 µM

N#Cc1c(N)c2ccc(Cl)cc2n(-c2ccc(Cl)nc2)c1=O [compound 103]
EC50 [1, 3]: 3.61 µM | CC50 at 3 days [2]: 85.2 µM

N#Cc1c(N)c2ccc(-c3cccs3)cc2n(-c2ccc([N+](=O)[O-])cc2)c1=O [compound 119]
EC50 [1, 3]: 0.52 µM | CC50 at 3 days [2]: > 100 µM

N#Cc1cc2ccc(-c3ccccc3)cc2n(-c2ccc([N+](=O)[O-])cc2)c1=O [compound 28]
EC50 [1, 3]: 1.34 µM | CC50 at 3 days [2]: > 32 µM

N#Cc1c(N)c2ccc(Br)cc2n(-c2ccc([N+](=O)[O-])cc2)c1=O [compound 118]
EC50 [1, 3]: 0.72 µM | CC50 at 3 days [2]: > 32 µM

Cc1ccc(-n2c(=O)c(C#N)cc3ccc(-c4cc[nH]c4)cc32)cc1C#N [compound 150]
EC50 [1, 3]: 0.56 µM | CC50 at 3 days [2]: > 100 µM

N#Cc1cc2ccccc2n(-c2ccc([N+](=O)[O-])cc2)c1=O [compound 1]
EC50 [1, 3]: 2.89 µM | CC50 at 3 days [2]: > 100 µM

N#Cc1cc2ccc(OCCNCCO)cc2n(-c2ccc([N+](=O)[O-])cc2)c1=O [compound 71]
EC50 [1, 3]: > 32 µM | CC50 at 3 days [2]: > 32 µM

Cc1ccc(-n2c(=O)c(C#N)c(NCCN)c3ccccc32)cc1C#N [compound 164]
EC50 [1, 3]: 0.63 µM | CC50 at 3 days [2]: 12.9 µM

Cc1ccc(-n2c(=O)c(C#N)cc3ccc(OCCCN(C)C)cc32)cc1C#N [compound 147]
EC50 [1, 3]: 0.85 µM | CC50 at 3 days [2]: 83.9 µM

N#Cc1cc2ccc(OP(=O)(O)O)cc2n(-c2ccc([N+](=O)[O-])cc2)c1=O [compound 70]
EC50 [1, 3]: 17.5 µM | CC50 at 3 days [2]: > 32 µM

Cc1ccc(-n2c(=O)c(C#N)c(N)c3ccc(-c4ccccn4)cc32)cc1C#N [compound 123]
EC50 [1, 3]: > 100 µM | CC50 at 3 days [2]: > 100 µM

N#Cc1cc2cccnc2n(-c2ccc([N+](=O)[O-])cc2)c1=O [compound 99]
EC50 [1, 3]: 19.3 µM | CC50 at 3 days [2]: > 32 µM

N#Cc1cc2ccc(N)cc2n(-c2ccc([N+](=O)[O-])cc2)c1=O [compound 24]
EC50 [1, 3]: 1.48 µM | CC50 at 3 days [2]: > 32 µM

Cc1ccc(-n2c(=O)c(C#N)cc3ccc(NCCCN4CCCC4)cc32)cc1C#N [compound 157]
EC50 [1, 3]: 0.89 µM | CC50 at 3 days [2]: 52.7 µM

Cc1ccc(-n2c(=O)c(C#N)cc3ccc(-c4cccc(CNC(=O)CN(C)C)c4)cc32)cc1C#N [compound 158]
EC50 [1, 3]: 0.21 µM | CC50 at 3 days [2]: 11.5 µM

N#Cc1c(NCCN2CCCC2)c2ccccc2n(-c2ccc([N+](=O)[O-])cc2)c1=O [compound 130]
EC50 [1, 3]: 3.71 µM | CC50 at 3 days [2]: > 100 µM

N#Cc1cc2ccc(-n3cnnc3)cc2n(-c2ccc([N+](=O)[O-])cc2)c1=O [compound 26]
EC50 [1, 3]: 80.9 µM | CC50 at 3 days [2]: > 100 µM

N#Cc1cc2ccc(-n3cccc3)cc2n(-c2ccc([N+](=O)[O-])cc2)c1=O [compound 25]
EC50 [1, 3]: 0.95 µM | CC50 at 3 days [2]: 97.2 µM

COc1ccc2cc(C#N)c(=O)n(-c3ccc([N+](=O)[O-])cc3)c2c1 [compound 9]
EC50 [1, 3]: 2.48 µM | CC50 at 3 days [2]: > 32 µM

COc1ccc2cc(C#N)c(=O)n(-c3ccc(C)c(C#N)c3)c2c1 [compound 146]
EC50 [1, 3]: 4.67 µM | CC50 at 3 days [2]: > 100 µM

COc1ccc2c(N)c(C#N)c(=O)n(-c3ccc(C)c(C#N)c3)c2c1 [compound 145]
EC50 [1, 3]: 3.01 µM | CC50 at 3 days [2]: > 100 µM

Cc1ccc(-n2c(=O)c(C#N)cc3ccc(-c4cccc(CO)c4)cc32)cc1C#N [compound 156]
EC50 [1]: 2.58 µM | CC50 (MT4 CMV-EGFP cells): 64.9 µM

Cc1ccc(-n2c(=O)c(C#N)c(N)c3ccc(-c4cc[nH]n4)cc32)cc1C#N [compound 124]
EC50 [1]: 83.9 µM | CC50 (MT4 CMV-EGFP cells): > 100 µM

CC(=O)NCCCOc1ccc2cc(C#N)c(=O)n(-c3ccc([N+](=O)[O-])cc3)c2c1 [compound 69]
EC50 [1]: 10.2 µM | CC50 (MT4 CMV-EGFP cells): > 100 µM

Cc1ccc(-n2c(=O)c(C#N)cc3ccc(-c4cccn4C)cc32)cc1C#N [compound 154]
EC50 [1]: 10 µM | CC50 (MT4 CMV-EGFP cells): > 100 µM

N#Cc1cc2ccc(OCCCN)cc2n(-c2ccc(Cl)nc2)c1=O [compound 92]
EC50 [1]: 8.55 µM | CC50 (MT4 CMV-EGFP cells): > 32 µM

CN(C)CCCOc1ccc2cc(C#N)c(=O)n(-c3ccc([N+](=O)[O-])cc3)c2c1 [compound 64]
EC50 [1]: 0.47 µM | CC50 (MT4 CMV-EGFP cells): 70.6 µM

Cc1ccc(-n2c(=O)c(C#N)cc3ccc(-c4cccc(CN(C)C)c4)cc32)cc1C#N [compound 152]
EC50 [1]: 0.58 µM | CC50 (MT4 CMV-EGFP cells): 3.95 µM

N#Cc1cc2ccccc2n(-c2ccc(Cl)nc2)c1=O [compound 4]
EC50 [1]: > 32 µM | CC50 (MT4 CMV-EGFP cells): > 32 µM

N#Cc1cc2ccccc2n(-c2ccc([N+](=O)[O-])cn2)c1=O [compound 3]
EC50 [1]: 4.8 µM | CC50 (MT4 CMV-EGFP cells): > 32 µM

N#Cc1cc2ccc(-c3cccs3)cc2n(-c2ccc([N+](=O)[O-])cc2)c1=O [compound 36]
EC50 [1]: 0.76 µM | CC50 (MT4 CMV-EGFP cells): > 100 µM

N#Cc1cc2ccc(OCCN3CCNCC3)cc2n(-c2ccc([N+](=O)[O-])cc2)c1=O [compound 61]
EC50 [1]: 3.65 µM | CC50 (MT4 CMV-EGFP cells): > 32 µM

CNCCNc1c(C#N)c(=O)n(-c2ccc([N+](=O)[O-])cc2)c2ccccc12 [compound 135]
EC50 [1]: 3.37 µM | CC50 (MT4 CMV-EGFP cells): 53.2 µM

N#Cc1cc2cc(OCCN)ccc2n(-c2ccc([N+](=O)[O-])cc2)c1=O [compound 86]
EC50 [1]: 1.18 µM | CC50 (MT4 CMV-EGFP cells): > 32 µM

N#Cc1c(N)c2ccccc2n(-c2ccc(Cl)nc2)c1=O [compound 104]
EC50 [1]: 19.5 µM | CC50 (MT4 CMV-EGFP cells): > 32 µM

N#Cc1cc2ccc(OCCCN)cc2n(-c2ccc([N+](=O)[O-])cc2)c1=O [compound 57]
EC50 [1]: 1.06 µM | CC50 (MT4 CMV-EGFP cells): 49.6 µM

N#Cc1cc2ccc(-c3ccc[nH]3)cc2n(-c2ccc([N+](=O)[O-])cc2)c1=O [compound 34]
EC50 [1]: 0.25 µM | CC50 (MT4 CMV-EGFP cells): 32.3 µM

N#Cc1c(N)c2ccc(-c3cscn3)cc2n(-c2ccc([N+](=O)[O-])cc2)c1=O [compound 120]
EC50 [1]: 0.54 µM | CC50 (MT4 CMV-EGFP cells): > 100 µM

CC(=O)NCc1cccc(-c2ccc3cc(C#N)c(=O)n(-c4ccc([N+](=O)[O-])cc4)c3c2)c1 [compound 43]
EC50 [1]: 0.93 µM | CC50 (MT4 CMV-EGFP cells): > 100 µM

N#Cc1cc2ccc(O)cc2n(-c2ccc(Cl)nc2)c1=O [compound 91]
EC50 [1]: > 32 µM | CC50 (MT4 CMV-EGFP cells): > 32 µM

N#Cc1cc2ccc(-c3cc[nH]c3)cc2n(-c2ccc([N+](=O)[O-])cc2)c1=O [compound 44]
EC50 [1]: 0.19 µM | CC50 (MT4 CMV-EGFP cells): > 100 µM

CN(C)CCOc1ccc2c(c1)cc(C#N)c(=O)n2-c1ccc([N+](=O)[O-])cc1 [compound 90]
EC50 [1]: 0.89 µM | CC50 (MT4 CMV-EGFP cells): > 32 µM

CCNCCCOc1ccc2cc(C#N)c(=O)n(-c3ccc([N+](=O)[O-])cc3)c2c1 [compound 65]
EC50 [1]: 0.26 µM | CC50 (MT4 CMV-EGFP cells): 69 µM

N#Cc1cc2ccc(-c3ccc(C(=O)O)s3)cc2n(-c2ccc([N+](=O)[O-])cc2)c1=O [compound 47]
EC50 [1]: > 100 µM | CC50 (MT4 CMV-EGFP cells): > 100 µM

CN(C)CCCNc1c(C#N)c(=O)n(-c2ccc([N+](=O)[O-])cc2)c2ccccc12 [compound 139]
EC50 [1]: 2.16 µM | CC50 (MT4 CMV-EGFP cells): 59.5 µM

CN(C)C(=O)c1ccc(-c2ccc3cc(C#N)c(=O)n(-c4ccc([N+](=O)[O-])cc4)c3c2)cc1 [compound 40]
EC50 [1]: 0.95 µM | CC50 (MT4 CMV-EGFP cells): > 100 µM

COc1ccc2c(N)c(C#N)c(=O)n(-c3ccc([N+](=O)[O-])cc3)c2c1 [compound 116]
EC50 [1]: 0.78 µM | CC50 (MT4 CMV-EGFP cells): > 100 µM
